Reference: US20260256792A1, “TREATMENT OF CHRONIC SPONTANEOUS URTICARIA BY ADMINISTERING (R)-2-[3-[4-AMINO-3-(2-FLUORO-4-PHENOXY-PHENYL)PYRAZOLO[3,4-D]PYRIMIDIN-1-YL]PIPERIDINE-1-CARBONYL]-4-METHYL-4-[4-(OXETAN-3-YL)PIPERAZIN-1-YL]PENT-2-ENENITRILE” (priority 2023, published 2026)

Test system: moderate-to-severe chronic spontaneous urticaria (CSU)
Assay: Phase 2 CSU study: hives severity score over 7 days (HSS7)
Type: in vivo, human
Parameters: key to HSS7 Change from baseline, Median / HSS7, Median / HSS7, Max / HSS7 Change from baseline, Q1 / HSS7 Change from baseline, Q3 / HSS7 Change from baseline, Max: 7-day sum of daily hive scores, each 0 = none to 3 = >50 hives
Conditions: for median reduction in HSS7 at Week 12: omalizumab-naïve population; for HSS7, Mean (SD) / HSS7, Median: End of Study; for HSS7 change from baseline at Week 12, LS Mean / HSS7 change from baseline at Week 12, LS Mean Diff vs. placebo: ANCOVA
Excerpt: The study comprises a 12 week, randomized, double-blind, placebo-controlled, multi-center, dose-ranging efficacy and safety phase, followed by a 40 week open label extension (OLE) phase (see FIG. 1).
The study consists of three phases and an optional OLE phase.
The UAS is a validated PRO measure. The daily UAS is the sum of the daily Hive Severity Score (HSS, ranging from 0=None to 3=more than 50 hives) and the daily Itch Severity Score (ISS, ranging from 0=None to 3=intense), the 2 key urticaria signs and symptoms which are wheals and itch. The daily UAS scores range from 0 to 6 point/day. Daily UAS scores are summed over 7-day period to create the UAS7, ranging from 0 to 42, and are composed of the HSS7 and ISS7 components. […] Patients were to complete the UAS using the e-diary. The e-diary was to be used once daily on the same time of each day recording of participant's answers to the urticaria activity score over 7 days (UAS7) questionnaire. For participants who entered the OLE phase, their answers to the UAS7 questionnaire were also to be collected from Week 20 to Week24 and from Week 48 to Week 52.
The following secondary endpoints were to be analyzed using the same approach as for the primary endpoint: • Change from baseline in UAS7 at Week 4 • Change from baseline in UAS7 at Week 12 (for US and US reference countries) • Change from baseline in ISS7 at Week 12 (except US and US reference countries) • Change from baseline in HSS7 at Week 12

[1] = 400 mg TID, Week 9, ITT Population
[2] = 400 mg TID, Week 9, Omalizumab-Naïve Population
[3] = 400 mg TID, Week 10, ITT Population
[4] = 400 mg TID, Week 11, ITT Population
[5] = 400 mg TID, Week 12, ITT population
[6] = 400 mg TID, patients with prior omalizumab use, last block under Week 12, double-blind period, WOCF imputation
[7] = 400 mg BID, Omalizumab-Naïve Population
[8] = 400 mg QPM, Omalizumab-Naïve Population
[9] = 400 mg TID, Patients with Prior Omalizumab Use
[10] = Omalizumab-Naïve Population with Outlier Removed from Analysis, 400 mg BID
[11] = Omalizumab-Naïve Population with Outlier Removed from Analysis, 400 mg QPM
[12] = Omalizumab-Naïve Population with Outlier Removed from Analysis, 400 mg TID
[13] = Omalizumab-naïve Population, 400 mg BID
[14] = Omalizumab-naïve Population, 400 mg QPM
[15] = Omalizumab-naïve Population, 400 mg TID

## CC(C)(C=C(C#N)C(=O)N1CCC[C@@H](n2nc(-c3ccc(Oc4ccccc4)cc3F)c3c(N)ncnc32)C1)N1CCN(C2COC2)CC1 [rilzabrutinib, (R)-2-[3-[4-amino-3-(2-fluoro-4-phenoxy-phenyl)pyrazolo[3,4-d]pyrimidin-1-yl]piperidine-1-carbonyl]-4-methyl-4-[4-(oxetan-3-yl)piperazin-1-yl]pent-2-enenitrile]
400 mg TID, Week 8, Omalizumab-Naïve Population
  HSS7 Postbaseline Mean (SD): 6.12 (4.80)
400 mg TID, Week 8, Omalizumab-Naïve Population with Outlier Removed from Analysis
  HSS7 Postbaseline Mean (SD): 6.12 (4.80)
[1]
  HSS7 % Change difference for rilzabrutinib vs.placebo LS Mean (95% CI): −29.14 %
  HSS7 % Change from baseline LS Mean (SE): −53.06 (6.70) %
  HSS7 Change difference for rilzabrutinib vs.placebo LS Mean (95% CI): −3.67 (−6.21, −1.13)
  HSS7 Change from baseline LS Mean (SE): −7.79 (0.94)
  HSS7 Postbaseline Mean (SD): 5.43 (4.93)
[2]
  HSS7 % Change difference for rilzabrutinib vs.placebo LS Mean (95% CI): −27.94 %
  HSS7 Postbaseline Mean (SD): 5.88 (4.98)
400 mg TID, Week 9, Omalizumab-Naïve Population with Outlier Removed from Analysis
  HSS7 Postbaseline Mean (SD): 5.88 (4.98)
[3]
  HSS7 % Change difference for rilzabrutinib vs.placebo LS Mean (95% CI): −28.54 %
  HSS7 % Change from baseline LS Mean (SE): −56.54 (6.68) %
  HSS7 Change difference for rilzabrutinib vs.placebo LS Mean (95% CI): −3.55 (−6.13, −0.97)
  HSS7 Change from baseline LS Mean (SE): −8.15 (0.96)
  HSS7 Postbaseline Mean (SD): 5.39 (5.05)
400 mg TID, Week 10, Omalizumab-Naïve Population
  HSS7 Postbaseline Mean (SD): 5.87 (5.06)
400 mg TID, Week 10, Omalizumab-Naïve Population with Outlier Removed from Analysis
  HSS7 Postbaseline Mean (SD): 5.87 (5.06)
[4]
  HSS7 % Change difference for rilzabrutinib vs.placebo LS Mean (95% CI): −28.42 %
  HSS7 % Change from baseline LS Mean (SE): −54.96 (6.95) %
  HSS7 Change difference for rilzabrutinib vs.placebo LS Mean (95% CI): −3.55 (−6.14, −0.95)
  HSS7 Change from baseline LS Mean (SE): −8.09 (0.96)
  HSS7 Postbaseline Mean (SD): 5.60 (5.41)
400 mg TID, Week 11, Omalizumab-Naïve Population
  HSS7 Postbaseline Mean (SD): 6.17 (5.40)
400 mg TID, Week 11, Omalizumab-Naïve Population with Outlier Removed from Analysis
  HSS7 Postbaseline Mean (SD): 6.17 (5.40)
[5]
  HSS7 % Change difference for rilzabrutinib vs.placebo LS Mean (95% CI): −29.54 %
  HSS7 % Change from baseline LS Mean (SE): −57.27 (7.06) %
  HSS7 Change difference for rilzabrutinib vs.placebo LS Mean (95% CI): −3.42 (−6.11, −0.74)
  HSS7 Change from baseline LS Mean (SE): −8.31 (1.00)
  HSS7 Postbaseline Mean (SD): 4.92 (4.89)
400 mg TID, Week 12, Omalizumab-Naïve Population
  HSS7 Postbaseline Mean (SD): 5.23 (4.86)
400 mg TID, Week 12, Omalizumab-Naïve Population with Outlier Removed from Analysis
  HSS7 Postbaseline Mean (SD): 5.23 (4.86)
400 mg TID
  median reduction in HSS7 at Week 12: −7.64
400 mg TID, outlier removed
  median reduction in HSS7 at Week 12: −7.89
[6]
  HSS7, Max: 8.2
  HSS7, Min: 4.0
  HSS7 Change from baseline, Max: 0.0
  HSS7 Change from baseline, Mean (SD): −2.00 (2.83)
  HSS7 Change from baseline, Median: −2.00
  HSS7 Change from baseline, Min: −4.0
  HSS7 Change from baseline, Q1: −4.00
  HSS7 Change from baseline, Q3: 0.00
  HSS7 Percent change from baseline, Max: 0.0%
  HSS7 Percent change from baseline, Mean (SD): −25.00 (35.36) percent
  HSS7 Percent change from baseline, Median: −25.00%
  HSS7 Percent change from baseline, Min: −50.0%
  HSS7 Percent change from baseline, Q1: −50.00%
  HSS7 Percent change from baseline, Q3: 0.00%
[7]
  HSS7, Mean (SD): 7.80 (8.76)
  HSS7, Median: 7.00
[8]
  HSS7, Mean (SD): 6.13 (9.09)
  HSS7, Median: 1.40
400 mg TID, Omalizumab-Naïve Population
  HSS7, Mean (SD): 10.00 (5.79)
[9]
  HSS7, Mean (SD): 6.08 (2.95)
  HSS7, Median: 6.08
ITT Population, 400 mg BID
  HSS7 at Week 12, Mean: 7.08
  HSS7 at Week 12, Median: 6.00
  HSS7 change from baseline at Week 12, Mean: −7.81
  HSS7 change from baseline at Week 12, Median: −5.30
  HSS7 change from baseline at Week 12, LS Mean: −6.78
  HSS7 change from baseline at Week 12, LS Mean Diff vs. placebo: −1.89
ITT Population, 400 mg QPM
  HSS7 at Week 12, Median: 8.75
  HSS7 change from baseline at Week 12, Mean: −5.05
  HSS7 change from baseline at Week 12, Median: −4.00
  HSS7 change from baseline at Week 12, LS Mean: −4.75
  HSS7 change from baseline at Week 12, LS Mean Diff vs. placebo: 0.14
ITT Population, 400 mg TID
  HSS7 at Week 12, Mean: 4.92
  HSS7 at Week 12, Median: 3.50
  HSS7 change from baseline at Week 12, Mean: −9.62
  HSS7 change from baseline at Week 12, Median: −9.00
  HSS7 change from baseline at Week 12, LS Mean: −8.31
  HSS7 change from baseline at Week 12, LS Mean Diff vs. placebo: −3.42
[10]
  HSS7 at Week 12, Mean: 7.52
  HSS7 at Week 12, Median: 7.00
  HSS7 change from baseline at Week 12, Mean: −7.09
  HSS7 change from baseline at Week 12, Median: −4.50
  HSS7 change from baseline at Week 12, LS Mean: −6.56
  HSS7 change from baseline at Week 12, LS Mean Diff vs. placebo: −2.20
[11]
  HSS7 at Week 12, Median: 8.58
  HSS7 change from baseline at Week 12, Mean: −4.85
  HSS7 change from baseline at Week 12, Median: −4.00
  HSS7 change from baseline at Week 12, LS Mean: −4.57
  HSS7 change from baseline at Week 12, LS Mean Diff vs. placebo: −0.22
[12]
  HSS7 at Week 12, Mean: 5.23
  HSS7 at Week 12, Median: 4.08
  HSS7 change from baseline at Week 12, Mean: −8.77
  HSS7 change from baseline at Week 12, Median: −8.00
  HSS7 change from baseline at Week 12, LS Mean: −7.89
  HSS7 change from baseline at Week 12, LS Mean Diff vs. placebo: −3.54
[13]
  HSS7 at Week 12, Mean: 7.52
  HSS7 at Week 12, Median: 7.00
  HSS7 change from baseline at Week 12, Mean: −7.09
  HSS7 change from baseline at Week 12, Median: −4.50
  HSS7 change from baseline at Week 12, LS Mean: −6.52
  HSS7 change from baseline at Week 12, LS Mean Diff vs. placebo: −2.12
[14]
  HSS7 at Week 12, Median: 8.58
  HSS7 change from baseline at Week 12, Mean: −4.85
  HSS7 change from baseline at Week 12, Median: −4.00
  HSS7 change from baseline at Week 12, LS Mean: −4.49
  HSS7 change from baseline at Week 12, LS Mean Diff vs. placebo: −0.09
[15]
  HSS7 at Week 12, Mean: 5.23
  HSS7 at Week 12, Median: 4.08
  HSS7 change from baseline at Week 12, Mean: −8.77
  HSS7 change from baseline at Week 12, Median: −8.00
  HSS7 change from baseline at Week 12, LS Mean: −7.64
